We go through one molecule from patent US20250161299A1, “ORAL PCLX-001 IN THE TREATMENT OF HUMAN CANCER” (PACYLEX PHARMACEUTICALS INC., priority 2022, published 2025).

One series addresses human NMT2 (Homo sapiens, UniProt O60551). The experiment in a line: Inhibition of N-myristoyltransferase NMT2. It counts as biochemical.
In series [1] the test system is Melanoma cultured human cancer cells. To be noted: mean among sensitive cell lines, cited from earlier work; for IC50: read-out: IC50 mean +/− SD.
In series [2] the test system is Prostate cultured human cancer cells. The following applies: second panel, mean among sensitive cell lines, read-out: IC50 mean +/− SD; cited from earlier work.
In series [3] the test system is Stomach cultured human cancer cells. The following applies: second panel, mean among sensitive cell lines, read-out: IC50 mean +/− SD; cited from earlier work.
The nature of series [4]: Phase I trial plasma pharmacokinetics, two-compartment model (PK Solver 2.0). It counts as in vivo. To be noted: human, oral, 20 mg. How it is done: A different pharmacokinetic modeling program was used in the publication PK Solver 2.0 freeware (https://www.boomer.org/boomer/software/pksolver.zip; accessed 26 Nov. 2021) was used to determine the single dose pharmacokinetic parameters using a two-compartment model. […] As noted above, non-compartmental pharmacokinetic analysis was performed using Phoenix WinNonlin 8.3 using trapezoidal rule and linear up log down methodology. WinNonlin was allowed to pick optimal terminal phases.
Pharmacokinetic analysis was conducted as described above. […] These parameters are all supportive of a single daily oral dosing schedule for PCLX-001.

Series [5] deals with Breast cultured human cancer cells. The following applies: mean among sensitive cell lines, cited from earlier work.
The mark [6] stands for this setting: first panel, read-out: EC50 mean +/− SD.
Where [7] appears, read: Table 1B third line, Patient 115-002-001, Day 15 as printed.

Read-outs that look alike come from different tables or passages of the source.

Sequence of human NMT2 (O60551 whole entry): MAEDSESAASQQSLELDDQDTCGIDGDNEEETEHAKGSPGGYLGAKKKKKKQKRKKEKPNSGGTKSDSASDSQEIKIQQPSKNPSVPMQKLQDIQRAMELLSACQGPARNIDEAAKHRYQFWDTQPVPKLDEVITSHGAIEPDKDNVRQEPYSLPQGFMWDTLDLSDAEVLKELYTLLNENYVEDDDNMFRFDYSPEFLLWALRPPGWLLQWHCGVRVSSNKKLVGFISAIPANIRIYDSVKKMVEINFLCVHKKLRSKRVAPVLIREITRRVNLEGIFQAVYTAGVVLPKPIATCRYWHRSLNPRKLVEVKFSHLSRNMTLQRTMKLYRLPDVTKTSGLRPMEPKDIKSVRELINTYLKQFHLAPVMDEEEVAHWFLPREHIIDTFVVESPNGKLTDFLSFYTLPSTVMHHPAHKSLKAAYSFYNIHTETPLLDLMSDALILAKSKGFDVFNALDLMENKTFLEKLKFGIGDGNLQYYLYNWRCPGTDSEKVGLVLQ

As a reminder, the AUC(0-inf) is total exposure, with the tail of the curve extrapolated. The low end stands for less exposure, the high end for more exposure. What is called AUC(0-t) is exposure summed from dosing to a finite time, without extrapolation to infinity. A word on the Cmax: it is the highest concentration seen after dosing. The half-life is how long it takes for the measured level to halve. Read a high half-life as slow loss. For `Cc1c(NS(=O)(=O)c2c(Cl)cc(-c3ccnc(N4CCNCC4)c3)cc2Cl)c(CC(C)C)nn1C` [PCLX-001, 2,6-dichloro-N-(3-isobutyl-1,5-dimethyl-1H-pyrazol-4-yl)-4-(2-(piperazin-1-yl)pyridin-4-yl)benzene sulfonamide], on human NMT2, the “inhibition of human NMT2” value was “potent”. Also, the values for the EC50 in series [1] (setting [6]) and in series [5] (setting [6]) were 134 ± 53.9 nM and 101 ± 96.4 nM, respectively. Moreover, the IC50 in series [1] (second panel) is 208 ± 99.5 nM; in series [1] (third panel), 157 ± 192 nM; in series [2] it was 85.4 ± 59.2 nM; in series [3], 120 ± 48.2 nM; in series [5] (second panel, read-out: IC50 mean +/− SD) it was 161 ± 47.9 nM. Moreover, the AUC(0-inf) came to 2640 ng·h/mL in series [4] (Table 1B fourth line, Patient 115-002-001, Day 15) and 2360 ng·h/mL in series [4] (setting [7]). In series [4] (setting [7]), this molecule gave an area under the curve AUC(0-t) of 1700 ng·h/mL. In addition, the peak concentration (Cmax) in series [4] (setting [7]) stood at 278 ng/mL. In series [4] (setting [7]), this molecule showed a half-life of 16.4 h.
